{
  "source": "patent US20020039567A1",
  "about": "“Methods of treating bone or cartilage conditions by the administration of creatine” (priority 1998, published 2002)",
  "key": {"[1]": {"system": "osteoblasts (micromass culture)", "experiment": "Cell viability (neutral red uptake), micromass osteoblast cell culture", "type": "cell-based, rat", "settings": "20 mM creatine; 3 weeks; vs control (p<0.005) and 10 mM creatine (p<0.003)", "protocol": "This isolation technique is based on the ability of osteoblasts to migrate from bone onto a substratum. Parietal and frontal calvariae (4 per animal) were aseptically explanted from 6 day-old IcoIbm rats. The calvariae were placed in Tyrode's balanced salt solution, calcium and magnesium free (TESS). The periosteum was enzymatically removed with 0.05% trypsin and 0.02% collagenase A (0.76 U/mg) dissolved in TBSS (40 calvaria/20 ml). The calvariae were shaken for 70 minutes in a waterbath at 37° C. They were washed with TESS and then transferred to 60 mm culture dishes (40 calvariae/dish) containing 5 ml of 0.02% collagenase A (0.76 U/mg) in culture medium BGJb Fitton-Jackson modification and placed in the incubator for 4 hours. The calvariae were then washed with culture medium B supplemented with 10% foetal calf serum (FCS). The calvariae were transferred into 60 mm culture dishes (4 frontal and 4 parietal/dish). The growth medium supplemented with 10% FCS and 50 μg/ml ascorbate was completely changed every 48 hours. The culture was kept for 3 weeks. […] The viability of the resuspended cells was examined by the dye exclusion of 0.4% trypan blue, and the cells were counted in a haeinocytometer. […] The absorbance of the supernatant (3 aliquots/dish) was read at 540 nm versus extraction buffer. […] If the absorbance was higher than 1, the samples were diluted with extraction buffer."}, "[2]": {"system": "osteoblasts (micromass culture)", "experiment": "Mitochondrial activity (MTT conversion), micromass osteoblast cell culture", "type": "cell-based, rat", "settings": "for MTT reaction: 2 weeks vs 1 week", "protocol": "This isolation technique is based on the ability of osteoblasts to migrate from bone onto a substratum. Parietal and frontal calvariae (4 per animal) were aseptically explanted from 6 day-old IcoIbm rats. The calvariae were placed in Tyrode's balanced salt solution, calcium and magnesium free (TESS). The periosteum was enzymatically removed with 0.05% trypsin and 0.02% collagenase A (0.76 U/mg) dissolved in TBSS (40 calvaria/20 ml). The calvariae were shaken for 70 minutes in a waterbath at 37° C. They were washed with TESS and then transferred to 60 mm culture dishes (40 calvariae/dish) containing 5 ml of 0.02% collagenase A (0.76 U/mg) in culture medium BGJb Fitton-Jackson modification and placed in the incubator for 4 hours. The calvariae were then washed with culture medium B supplemented with 10% foetal calf serum (FCS). The calvariae were transferred into 60 mm culture dishes (4 frontal and 4 parietal/dish). The growth medium supplemented with 10% FCS and 50 μg/ml ascorbate was completely changed every 48 hours. The culture was kept for 3 weeks.\nAfter 3 weeks the migrated cells were harvested. The dish was washed with TESS, and 5 ml of TESS containing 0.05% trypsin and 0.02% collagenase A (0.76 U/mg) was added. After 1 hour in the incubator, the dish was washed with culture medium BGJb supplemented with 10% FCS. The dishes containing the calvariae and cells were rinsed with serum containing media BGJb. […] The viability of the resuspended cells was examined by the dye exclusion of 0.4% trypan blue, and the cells were counted in a haeinocytometer. […]\nOriginally, Mosmann, 1983 described the general principle involved in the detection of cell growth/cell death as indicated by the conversion of the tetrazolium salt (MTT) to the colored formazan by mitochondrial dehydrogenases. The concentration of this can then be measured spectrophotoinetrically. […]\n6. The absorbance of the supernatant (3 aliquots/dish) was read at 550 nm versus DMSO.\nIf the absorbance was higher than 1, the samples were diluted with DMSO."}},
  "data": [
    {"molecule": "CN(CC(=O)O)C(=N)N", "note": "[creatine]", "values": [
      {"measurement": "NR uptake", "setting": "[1]", "value": "significantly lower NR uptake"},
      {"measurement": "MTT reaction", "setting": "[2]; 10 mM creatine, p<0.02", "value": "significantly higher MTT reaction"},
      {"measurement": "MTT reaction", "setting": "[2]; 20 mM creatine, p<0.006", "value": "significantly higher MTT reaction"},
      {"measurement": "MTT conversion", "setting": "[2]; 20 mM creatine, 3 weeks vs 2 weeks, p<0.015", "value": "significantly lower MTT conversion"}
    ]}
  ]
}
